Data reported in patent US20200055817A1 (AbbVie Deutschland GmbH & Co. KG, priority 2016, published 2020).
pEC50: −log10 of the molar value. Where a name gives a salt, the structure may show the parent alone.

Tests used:
Format in all cases: cell-based
[1] = target: T1, human EDG8 (S1PR5) receptor (Homo sapiens, UniProt Q9H228); assay: Aequorin assay, agonist potency, CHO-A21-EDG8#12 cells; details: agonist mode, aequorin luminescence; read-out: S1P5 EC50 range #
T1 construct: carries the transgenes human EDG8 (S1PR5) receptor (Acession number NP_110387.1); expressed in transfected cells; host or cells: CHO-A21-EDG8#12 (CHO clone co-expressing mitochondrial aequorin and chimaeric Gaqi5)
Procedure, shortened: (§1)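 CHO cells coexpressing receptor, mitochondrial aequorin and Gαqi5 (S1P3 pool: GNA16) were loaded overnight at RT with 5 μM coelenterazine h in 0.1% fatty-acid-free BSA buffer. Cells were injected onto compound, luminescence recorded 90 s and integrated, normalised to digitonin or 20 μM ATP; sigmoidal fit.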

[2] = target: T2, human EDG1 (S1PR1) receptor (Homo sapiens, UniProt P21453); assay: Aequorin assay, agonist potency, CHO-A21-Edg1#17 cells; details: agonist mode, aequorin luminescence; read-out: S1P1 EC50
T2 construct: expressed in transfected cells; host or cells: CHO-A21-Edg1#17 (CHO clone co-expressing mitochondrial aequorin and chimaeric Gaqi5)
Procedure, shortened: as §1

[3] = target: T3, human EDG3 (S1PR3) receptor (Homo sapiens, UniProt Q99500); assay: Aequorin assay, agonist potency, CHO-A2-S1P3 Mix cells; details: agonist mode, aequorin luminescence
T3 construct: expressed in transfected cells; host or cells: CHO-A2-S1P3 Mix (CHO cell pool co-expressing mitochondrial aequorin and GNA16)
Protocol: Agonistic activity was measured as described below.
Cell clone CHO-A21-Edg1#17 carries the transgenes human EDG1 (S1PR1) receptor (Accession number NP_001391.2), mitochondrially targeted Aequorin (active part corresponds to accession number 1SL8_A) and chimaeric Gaqi5=Gaq modified with the 5 C-terminal amino-acids replaced with those of the Gai protein (DCGLF). CHO-A2-S1P3 Mix is a cell pool ectopically expressing human EDG3 (S1PR3) receptor (Accession number NP_005217.2) mitochondrially targeted Aequorin (active part has a sequence similar to accession number AY601106.1) and GNA16 (Accession number NP_002059.3). Cell clone CHO-A21-EDG8#12 carries the transgenes human EDG8 (S1PR5) receptor (Acession number NP_110387.1), mitochondrially expressed Aequorin (active part corresponds to accession number 1SL8_A) and chimaeric Gaqi5 (Gaq modified to present the 5 last amino-acids of the Gai protein “DCGLF”; see above). Cells are grown to mid-log phase in culture medium (HAM's F12, 10% FBS, 100 IU/mL penicillin, 100 μg/mL streptomycin, 250 μg/mL Zeocin, 400 μg/mL G418). 18 hours prior to frozen cells preparation, the medium is changed to remove the antibiotics.
18 hours prior to the test, vials of frozen cells are quickly thawed in a 37° C. water bath, cells are recovered by centrifugation and resuspended in assay buffer (DMEM/HAM's F12 with HEPES, without phenol red+0.1% fatty acid-free BSA). Cells are gently agitated in suspension overnight at RT in presence of 5 μM of Coelenterazine h (Molecular Probes). On the day of the test, cells are diluted to their final working concentrations in assay buffer and agitated in suspension for 1 h at RT. Cells are then placed in the luminescence reader (Hamamatsu Functional Drug Screening System 6000, FDSS6000). During cells incubation, compounds are prepared in 100% DMSO, and subsequently diluted in assay buffer. Compounds are then dispensed in the assay plate (black, clear-bottom, 384-well plate). After binding of agonists to the human S1P receptor the intracellular calcium concentration increases and binding of calcium to the Aequorin/Coelenterazine complex leads to an oxidation reaction of coelenterazine, which results in the production of Aequorin, coelenteramide, CO2 and light (Dmax 469 nm). The luminescent response is dependent on the agonist concentration. For agonist testing, 30 μL of cell suspension are injected on 30 μL of test compound or reference agonist in the assay plate. The resulting emission of light is recorded for 90 seconds using the FDSS6000. Dose response curves with the reference compounds are performed before testing the compounds. S1P is the reference agonist and JTE-013 the reference antagonist for S1P2.
Luminescence data are integrated over the reading interval for agonist and antagonist modes. To standardize the emission of recorded light (determination of the “100% signal”) across plates and across different experiments, some of the wells contain 100 μM digitonin or a saturating concentration of ATP (20 μM). Plates also contain the reference agonist at a concentration equivalent to the EC80 obtained during the test validation and the EC100. Dose-response data from test compounds were analyzed with XLfit (IDBS) software using nonlinear regression applied to a sigmoidal dose-response model and the following equation: […]

S1P4 = target: T4, S1P4 (Homo sapiens, UniProt O95977); assay: Aequorin assay, agonist potency, S1P4; details: agonist mode, aequorin luminescence
T4 sequence (O95977 1-384): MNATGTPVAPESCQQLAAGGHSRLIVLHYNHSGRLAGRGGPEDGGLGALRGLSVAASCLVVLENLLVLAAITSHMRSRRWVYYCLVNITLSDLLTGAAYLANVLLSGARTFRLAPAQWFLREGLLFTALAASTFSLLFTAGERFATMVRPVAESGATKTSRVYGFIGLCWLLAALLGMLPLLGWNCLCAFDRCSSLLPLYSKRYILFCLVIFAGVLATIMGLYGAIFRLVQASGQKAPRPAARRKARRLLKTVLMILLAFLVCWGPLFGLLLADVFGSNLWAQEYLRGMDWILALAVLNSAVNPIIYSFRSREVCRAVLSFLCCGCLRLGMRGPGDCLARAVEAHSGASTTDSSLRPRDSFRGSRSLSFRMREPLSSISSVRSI
Procedure, shortened: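 Aequorin luminescence read over 90 s after adding coelenterazine h–loaded cells (5 μM, overnight, RT) to test compound in phenol red-free DMEM/F12 buffer containing 0.1% fatty acid-free BSA. Responses integrated, scaled to the 100% signal from 100 μM digitonin or 20 μM ATP, and fitted to a sigmoidal dose-response model.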

T2 sequence (P21453 whole entry): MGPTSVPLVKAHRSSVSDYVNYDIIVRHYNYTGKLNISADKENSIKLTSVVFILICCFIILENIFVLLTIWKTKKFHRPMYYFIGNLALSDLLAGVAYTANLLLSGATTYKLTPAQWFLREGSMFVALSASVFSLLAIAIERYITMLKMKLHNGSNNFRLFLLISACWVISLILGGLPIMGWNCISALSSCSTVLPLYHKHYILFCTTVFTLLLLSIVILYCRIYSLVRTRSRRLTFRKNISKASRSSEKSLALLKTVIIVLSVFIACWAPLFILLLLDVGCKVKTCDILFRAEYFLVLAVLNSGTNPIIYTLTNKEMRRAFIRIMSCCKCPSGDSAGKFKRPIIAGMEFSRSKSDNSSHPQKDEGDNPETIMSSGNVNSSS
T1 sequence (Q9H228 whole entry): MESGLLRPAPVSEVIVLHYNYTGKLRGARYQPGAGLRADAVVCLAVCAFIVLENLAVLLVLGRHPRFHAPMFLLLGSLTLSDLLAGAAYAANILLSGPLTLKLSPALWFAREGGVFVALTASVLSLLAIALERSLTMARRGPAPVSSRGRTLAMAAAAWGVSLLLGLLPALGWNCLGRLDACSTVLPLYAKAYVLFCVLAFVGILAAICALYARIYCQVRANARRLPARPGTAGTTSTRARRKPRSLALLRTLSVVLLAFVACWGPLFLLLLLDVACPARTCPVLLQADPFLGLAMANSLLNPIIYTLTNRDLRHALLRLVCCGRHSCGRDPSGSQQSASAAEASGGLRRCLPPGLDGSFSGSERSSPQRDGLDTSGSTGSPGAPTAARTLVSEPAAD
T3 sequence (Q99500 whole entry): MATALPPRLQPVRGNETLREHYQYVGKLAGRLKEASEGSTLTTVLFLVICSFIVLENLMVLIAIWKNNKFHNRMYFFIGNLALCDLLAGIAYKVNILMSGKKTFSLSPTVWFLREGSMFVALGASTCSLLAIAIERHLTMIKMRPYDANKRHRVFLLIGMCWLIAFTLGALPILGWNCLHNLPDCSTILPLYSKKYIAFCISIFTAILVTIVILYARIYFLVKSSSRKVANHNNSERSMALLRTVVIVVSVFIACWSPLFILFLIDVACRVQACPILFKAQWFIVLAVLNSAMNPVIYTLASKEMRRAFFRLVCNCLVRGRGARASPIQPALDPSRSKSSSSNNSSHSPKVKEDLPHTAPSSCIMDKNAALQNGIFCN

| Compound | pEC50 [1] | pEC50 [2] | pEC50 [3] | pEC50 (S1P4) |
| --- | --- | --- | --- | --- |
| O=C(O)CN1CC2(Cc3ccc(OCc4c(Cl)cccc4Cl)cc3C2)C1 [Example 109, 2-(5′-((2,6-dichlorobenzyl)oxy)-1′,3′-dihydrospiro[azetidine-3,2′-inden]-1-yl)acetic acid] | ≥ 8.00 | < 6.00 | < 6.00 | > 6.00 |
| O=C(O)C1(CN2CC3(Cc4ccc(OCCc5c(Cl)cccc5Cl)cc4C3)C2)CC1 [Example 59, 1-((5′-(2,6-dichlorophenethoxy)-1′,3′-dihydrospiro[azetidine-3,2′-inden]-1-yl)methyl)cyclopropanecarboxylic acid] | ≥ 8.00 | < 6.00 | < 6.00 | > 6.00 |
| O=C(O)CCN1CC2(Cc3ccc(OCc4ccccc4)cc3C2)C1 [Example 6, 3-(5′-(benzyloxy)-1′,3′-dihydrospiro[azetidine-3,2′-inden]-1-yl)propanoic acid hydrochloride] | 5.00 to 6.00 | < 6.00 | < 6.00 | > 6.00 |
| O=C(O)CN1CC2(Cc3ccc(OCc4cccc(Cl)c4)cc3C2)C1 [Example 16, 2-(5′-((3-chlorobenzyl)oxy)-1′,3′-dihydrospiro[azetidine-3,2′-inden]-1-yl)acetic acid compound with acetic acid (1:1)] | ≥ 8.00 | < 6.00 | < 6.00 | > 6.00 |
| O=C(O)C1(CN2CC3(Cc4ccc(-c5ccc(OCc6ccc(Cl)cc6)cc5)cc4C3)C2)CC1 [Example 108, 1-((5′-(4-((4-chlorobenzyl)oxy)phenyl)-1′,3′-dihydrospiro[azetidine-3,2′-inden]-1-yl)methyl)cyclopropanecarboxylic acid] | 7.00 to 8.00 | < 6.00 | < 6.00 | < 6.00 |
| Cc1cccc(C)c1COc1ccc2c(c1)CC1(C2)CN(CC2(C(=O)O)CC2)C1 [Example 39, 1-((5′-((2,6-dimethylbenzyl)oxy)-1′,3′-dihydrospiro[azetidine-3,2′-inden]-1-yl)methyl)cyclopropanecarboxylic acid compound with 2,2,2-trifluoroacetic acid (1:1)] | ≥ 8.00 | < 6.00 | < 6.00 | > 6.00 |
| O=C(O)CN1CC2(Cc3ccc(OCc4ccc(Cl)cc4)cc3C2)C1 [Example 11, 2-(5′-((4-chlorobenzyl)oxy)-1′,3′-dihydrospiro[azetidine-3,2′-inden]-1-yl)acetic acid] | 5.00 to 6.00 | < 6.00 | < 6.00 | > 6.00 |
| CCc1cccc(Cl)c1COc1ccc2c(c1)CC1(CCN(CC(=O)O)CC1)C2 [Example 161, 2-(5-((2-chloro-6-ethylbenzyl)oxy)-1,3-dihydrospiro[indene-2,4′-piperidin]-1′-yl)acetic acid hydrochloride] | ≥ 8.00 | < 6.00 | < 6.00 | > 6.00 |
| O=C(O)CN1CCC2(CC1)Cc1ccc(OCc3c(Cl)cccc3Cl)cc1C2 [Example 160, 2-(5-((2,6-dichlorobenzyl)oxy)-1,3-dihydrospiro[indene-2,4′-piperidin]-1′-yl)acetic acid] | ≥ 8.00 | < 6.00 | < 6.00 | > 6.00 |
| O=C(O)CN1CC2(Cc3ccc(OCCc4c(Cl)cccc4Cl)cc3C2)C1 [Example 63, 2-(5′-(2,6-dichlorophenethoxy)-1′,3′-dihydrospiro[azetidine-3,2′-inden]-1-yl)acetic acid] | ≥ 8.00 | < 6.00 | < 6.00 | > 6.00 |
| O=C(O)CN1CC2(Cc3ccc(OCc4c(Cl)cccc4C4CC4)cc3C2)C1 [Example 15, 2-(5′-((2-chloro-6-cyclopropylbenzyl)oxy)-1′,3′-dihydrospiro[azetidine-3,2′-inden]-1-yl)acetic acid] | ≥ 8.00 | < 6.00 | < 6.00 | > 6.00 |
| CCc1cccc(F)c1COc1ccc2c(c1)CC1(CCN(CC(=O)O)CC1)C2 [Example 159, 2-(5-((2-ethyl-6-fluorobenzyl)oxy)-1,3-dihydrospiro[indene-2,4′-piperidin]-1′-yl)acetic acid hydrochloride] | ≥ 8.00 | < 6.00 | < 6.00 | > 6.00 |
| O=C(O)CN1CC2(Cc3ccc(OCc4cc(Cl)ccc4Cl)cc3C2)C1 [Example 23, 2,2,2-trifluoroacetic acid compound with 2-(5′-((2,5-dichlorobenzyl)oxy)-1′,3′-dihydrospiro[azetidine-3,2′-inden]-1-yl)acetic acid (1:1)] | ≥ 8.00 | < 6.00 | < 6.00 | > 6.00 |
| O=C(O)C1(CN2CC3(Cc4ccc(OCc5cccc(Cl)c5)cc4C3)C2)CC1 [Example 45, 1-((5′-((3-chlorobenzyl)oxy)-1′,3′-dihydrospiro[azetidine-3,2′-inden]-1-yl)methyl)cyclopropanecarboxylic acid] | 7.00 to 8.00 | < 6.00 | < 6.00 | > 6.00 |
| O=C(O)C1(CN2CC3(Cc4ccc(-c5ccc(OCc6cccc(F)c6)cc5)cc4C3)C2)CC1 [Example 50, 1-((5′-(4-((3-fluorobenzyl)oxy)phenyl)-1′,3′-dihydrospiro[azetidine-3,2′-inden]-1-yl)methyl)cyclopropanecarboxylic acid] | ≥ 8.00 | < 6.00 | < 6.00 | > 6.00 |
| O=C(O)CN1CC2(Cc3ccc(OCc4c(F)cccc4C4CC4)cc3C2)C1 [Example 110, 2-(5′-((2-cyclopropyl-6-fluorobenzyl)oxy)-1′,3′-dihydrospiro[azetidine-3,2′-inden]-1-yl)acetic acid] | ≥ 8.00 | < 6.00 | < 6.00 | > 6.00 |
| O=C(O)CN1CC2(Cc3ccc(OCc4cc(F)cc(F)c4)cc3C2)C1 [Example 14, 2-(5′-((3,5-difluorobenzyl)oxy)-1′,3′-dihydrospiro[azetidine-3,2′-inden]-1-yl)acetic acid] | 7.00 to 8.00 | < 6.00 | < 6.00 | > 6.00 |
| O=C(O)C1(CN2CC3(Cc4ccc(OCc5c(Cl)cccc5Cl)cc4C3)C2)CC1 [Example 46, 1-((5′-((2,6-dichlorobenzyl)oxy)-1′,3′-dihydrospiro[azetidine-3,2′-inden]-1-yl)methyl)cyclopropanecarboxylic acid] | ≥ 8.00 | < 6.00 | < 6.00 | > 6.00 |
